Results: paper PMC8472139, “Neuroprotective Effect of a Novel ATP-Synthase Inhibitor Bedaquiline in Cerebral Ischemia-Reperfusion Injury” (International Journal of Molecular Sciences, 2021)

Target: T1, F1F0-ATP synthase (ATPase, complex V) (Rattus norvegicus, UniProt P05504+Q06645)
T1 construct: gene Atp5mc1; native complex from brain mitochondria (male Wistar rat), immunocaptured in microplate wells (Abcam ab109714 kit); mature c subunit is identical from Atp5mc1/Atp5mc2/Atp5mc3; with ATP synthase F(1) complex subunit alpha, mitochondrial; ATP synthase F(1) complex catalytic subunit beta, mitochondrial; ATP synthase F(1) complex subunit gamma, mitochondrial; ATP synthase F(1) complex subunit delta, mitochondrial; ATP synthase F(1) complex subunit epsilon, mitochondrial; ATP synthase peripheral stalk subunit OSCP, mitochondrial; ATP synthase peripheral stalk-membrane subunit b, mitochondrial
Experiment: ATP hydrolysis coupled to NADH oxidation, absorbance […] nm, immunocapture kit
Type: biochemical

COc1nc2ccc(Br)cc2cc1[C@@H](c1ccccc1)[C@@](O)(CCN(C)C)c1cccc2ccccc12 [BDQ, Bedaquiline]
inhibition at 5 µM: ~50%
